Where “and” joins values, the source holds several entries; their conditions need not be identical. Equal entries are not always repeated. Marks after values point to notes of the source that are not given here.
What was measured:
[1] = Photoreaction quantum yields and cross sections (HPLC, Reinecke's salt actinometry); type: physicochemical
Protocol: Quantum yields of the photoreactions (Φ) are defined as:
The number of reacted molecules (e.g., consumption of prodrugs or generation of free drugs) were determined by HPLC. The absorbed photon number was determined by Reinecke's salt actinometry at excitation wavelengths of 530 nm and 690 nm^35, 36. The power densities were 50 mW/cm^2 (530 nm) and 100 mW/cm^2 (690 nm).

[2] = Photolysis of BODIPY prodrugs in solution, analysed by HPLC; type: physicochemical
Protocol: BODIPY photocage was conjugated with the free drug molecules to form photoactivable prodrugs with photolabile linkages, including ester and carbamate. The light illumination was performed with a NIR lamp, of which the parameters were 100 mW/cm^2, 690 nm for 5 min, in a N2-saturated solution containing 0.1 equiv. of Os(bptpy)2^2+ and 1 equiv. of prodrugs. […] In addition, the photocage was conjugated with drug molecules with amine groups to produce prodrugs with photolabile carbamate bonds.
The photolysis efficiency of BODIPY prodrugs were compared in different conditions, including different excitation wavelengths (690 nm or 530 nm), different ratios of Os(bptpy)2^2+, and different oxygen contents. […] The solvent was 88% methanol mixed by 10% dichloromethane and 2% acetone. For the N2-saturated groups, after dissolving the molecules, the solution was degassed with a vacuum pump for 10 min followed by gentle N2 blowing. After light irradiation, the resulted mixtures were refilled to 100 μL with methanol to avoid the error caused by solvent evaporation. The resulted solution was loaded onto the sampler and analyzed by high-performance liquid chromatography. An elution method was used to separate free drug, BODIPY photocage and prodrug on the C18 column.

[3] = In vivo biodistribution by IVIS fluorescence imaging; parameters: species or system BALB/c nude mice; settings: intravenous, DiR 100 μg/kg, HeLa tumor-bearing mice
Text: The tumors and major organs were excised for ex vivo fluorescence imaging 24-h post injection. […] It should be noted that the prodrug can be selectively activated in tumors by NIR light while those nanoparticles in the normal tissues and organs will not be activated, which can alleviate the side effects of chemotherapy.
BALB/c nude mice (female, 4 weeks, 15-20 g) were obtained from the Experimental Animal Center of University with access to food and water ad libitum. The animal experiment and procedures were approved by the Committee on the Use of Live Animals in Teaching & Research (CULATR), The University of Hong Kong. (Protocol No. 4381-17).
HeLa tumor-bearing mice was obtained by subcutaneously injecting HeLa cells for tumor implantation. HeLa cancer cells were collected by cell culture and trypsin digestion. The cells were washed by PBS and resuspended in DMEM medium without serum, in which collagen and Matrigel were added. 2×10^6 cells were dispersed in 100 μL mixture, which was subcutaneously injected into the mice at underarm area. […]
The biodistribution of free drug or nanoparticles in the HeLa tumor-bearing mice was measured by an in vivo fluorescence imaging system. […] The in vivo fluorescence imaging was performed at 1, 2, 8 and 24 h post injection and anesthesia at each time point. […]

[4] = in toluene, calculated by TD-DFT, referred to previous studies; cited from earlier work
[5] = red-light irradiation (625 nm), platinum photosensitizer PtTPBP; ref 17 / US2021/0228719; cited from earlier work
[6] = Encapsulation efficiency and loading capacity of Os/BC NP (HPLC); type: physicochemical; settings: component of Os/BC NP
Protocol: Flash nanoprecipitation method was used to fabricate the photosensitizer/prodrug-loading nanoparticles. […] Different formulations (Os NPs, BC NPs and Os/BC NPs) were then prepared with optimized ratios of components. Briefly, 224 μL of the mixed stock solution was added into 1.8 mL N2-saturated water under vortexing. The resulted solutions were added to dialysis bags (MW: 3400 Da) and dialyzed against 4 L of water for 24 h. The water out of dialysis bag was renewed every 8 h. The resulted solution of NPs was collected and filtrated with 220 nm filter. Finally, the NPs solutions were concentrated by ultrafiltration (Mw=100 kDa, 2000×g, 10 min) and stored at 4° C. until use. The concentrations of each component were measured by using HPLC. Loading capacity and encapsulation efficiency were calculated as follow: […]

[7] = Photophysical properties (UV-Vis absorption, emission, energy levels); type: physicochemical
Text: The absorption peak at about 492 nm is identified as the singlet metal-to-ligand charge transfer (^1MLCT) absorption, also termed as singlet-singlet (S-S) absorption. […] The two twistable bromophenyl groups of the bromophenyl terpyridine ligands extend the S-T absorption from 650 nm to 750 nm with increased absorption coefficient.
CombiFlash Rf chromatography instrument was purchased from Teledyne ISCO (Lincoln, USA) for chemical purification. Light sources used in this study were purchased from Yuanming Laser (Ningbo, China) and Mightex (CA, USA). The purity verification and photolysis study were conducted with a high-performance liquid chromatography (HPLC) system (Agilent technologies, 1260), attached with C-18 columns which were obtained from Agilent (Santa Clara, California, United States). Nuclear magnetic resonance (NMR) spectroscopy was collected by Bruker AVANCE III HD 500 spectrometer (MA, US). Fluorescence, phosphorescence and UV-vis spectra were collected by a SpectraMax M4 microplate reader (Molecular Devices, CA, US). The particle size and surface charge were recorded by a dynamic light scattering (DLS) device, Zetasizer Nano-ZS90 (Malvern instruments, UK). Transmission electron microscope (TEM) imaging was conducted on a Hitachi HT7700 TEM (Tokyo, Japan). ACEA NovoCyte Quanteon flow cytometer (ACEA Biosciences, CA, USA) was used for flow cytometry. In vivo and ex vivo imaging of the mice were conducted with an In Vivo Imaging System (PerkinElmer, USA). Devices for animal study like including balance and vernier caliper were kindly provided by The Centre for Comparative Medicine Research (CCMR), The University of Hong Kong.

[8] = λex 690 nm, 0.1 eq Os, N2, ε of Os(bptpy)2·2PF6 at 688 nm
[9] = 690 nm, 100 mW/cm^2, 5 min, 0.1 equiv. Os(bptpy)2^2+, N2-saturated solution

Row | Molecule | Quantum yield of drug release Φr ([1]; λex 690 nm, 0.1 eq Os, N2) | Quantum yield of prodrug photolysis Φp ([1]; λex 690 nm, 0.1 eq Os, N2) | Cross section Φpε(λex) [1, 8] | Cross section Φrε(λex) [1, 8] | photolytic yield (yield of free drug) [2, 9] | also measured
1 | CC1=C(I)C(C)=[N+]2C1=C(COC(=O)/C=C/c1cccc(OCc3ccccc3)c1)c1c(C)c(I)c(C)n1[B-]2(C)C [BODIPY-BCA, BODIPY-benzyloxycinnamic acid] | 0.75 ± 0.03% | 0.80 ± 0.02% | 213.33 ± 7.55 M⁻¹ cm⁻¹ | 200.64 ± 7.30 M⁻¹ cm⁻¹ | 87.12±3.17% | –
2 | CC1=C(I)C(C)=[N+]2C1=C(COC(=O)Cc1cccc3c(=O)c4ccc(C)c(C)c4oc13)c1c(C)c(I)c(C)n1[B-]2(C)C [BODIPY-DMXAA, BODIPY-vadimezan] | 0.71 ± 0.06% | 0.87 ± 0.01% | 230.30 ± 1.43 M⁻¹ cm⁻¹ | 190.05 ± 16.63 M⁻¹ cm⁻¹ | 82.52±7.22% | prodrug decomposition [2, 9]: completely consumed
3 | CC1=C(I)C(C)=[N+]2C1=C(COC(=O)NCCc1ccc(O)c(O)c1)c1c(C)c(I)c(C)n1[B-]2(C)C [BODIPY-DPA, BODIPY-dopamine] | 0.60 ± 0.02% | 0.86 ± 0.01% | 228.90 ± 3.59 M⁻¹ cm⁻¹ | 159.00 ± 4.58 M⁻¹ cm⁻¹ | 69.04±1.99% | –
4 | COc1ccc(CCNC(=O)OCC2=C3C(C)=C(I)C(C)=[N+]3[B-](C)(C)n3c(C)c(I)c(C)c32)cc1OC [BODIPY-HVA, BODIPY-homoveratrylamine] | 0.64 ± 0.03% | 0.85 ± 0.04% | 224.98 ± 9.83 M⁻¹ cm⁻¹ | 170.82 ± 9.14 M⁻¹ cm⁻¹ | 74.17±3.97% | –
5 | CC1=C(I)C(C)=[N+]2C1=C(COC(=O)C(C)c1ccc(CC(C)C)cc1)c1c(C)c(I)c(C)n1[B-]2(C)C (centres unmarked) [BODIPY-IBF, BODIPY-ibuprofen] | 0.42 ± 0.04% | 0.85 ± 0.04% | 226.34 ± 10.96 M⁻¹ cm⁻¹ | 111.67 ± 10.81 M⁻¹ cm⁻¹ | 48.49±4.69% | –
6 | COc1ccc2c(c1)c(CC(=O)OCC1=C3C(C)=C(I)C(C)=[N+]3[B-](C)(C)n3c(C)c(I)c(C)c31)c(C)n2C(=O)c1ccc(Cl)cc1 [BODIPY-IDM, BODIPY-indomethacin] | 0.60 ± 0.04% | 0.86 ± 0.02% | 229.15 ± 5.23 M⁻¹ cm⁻¹ | 158.79 ± 10.80 M⁻¹ cm⁻¹ | 68.95±4.69% | –
7 | CCCCN(C(=O)OCC1=C2C(C)=C(I)C(C)=[N+]2[B-](C)(C)n2c(C)c(I)c(C)c21)c1ccc(C(=O)OCCN(C)C)cc1 [BODIPY-TCI, BODIPY-tetracaine] | 0.36 ± 0.04% | 0.81 ± 0.06% | 215.84 ± 15.71 M⁻¹ cm⁻¹ | 95.21 ± 10.62 M⁻¹ cm⁻¹ | 41.34±4.61% | –
8 | CC1=C(I)C(C)=[N+]2C1=C(COC(=O)NCCc1ccc(O)cc1)c1c(C)c(I)c(C)n1[B-]2(C)C [BODIPY-TyrA, BODIPY-tyramine] | 0.40 ± 0.02% | 0.84 ± 0.02% | 223.12 ± 6.28 M⁻¹ cm⁻¹ | 107.25 ± 5.46 M⁻¹ cm⁻¹ | 46.57±2.37% | –
9 | CCCCCCCCCCCCCCCCCCN1C(=CC=CC=CC=CC2=[N+](CCCCCCCCCCCCCCCCCC)c3ccccc3C2(C)C)C(C)(C)c2ccccc21.[I-] [DiR, 1,1′-dioctadecyl-3,3,3′,3′-tetramethylindotricarbocyanine iodide] | – | – | – | – | – | time within which the free dye was completely metabolized [3]: ≤ 8 h
10 | BODIPY-chlorambucil [BODIPY-Cb] | 0.73 ± 0.04% | 0.84 ± 0.01% | 222.80 ± 2.90 M⁻¹ cm⁻¹ | – | 84.17±4.21% | Energy level S1 state [4]: 2.18 eV and 2.18^f eV; Energy level T1 state [4]: 1.52 eV and 1.52^g eV; T1 lifetime [4]: 21.82^e μs; max. yield of free Cb, one-photon upconversion-like photolysis [5]: 41.74%; Cross section Φpε(λex) ([1]; λex 530 nm, Air): 2292.95 ± 730.79 M⁻¹ cm⁻¹; Cross section Φrε(λex) ([1]; λex 530 nm, Air): 171.63 ± 24.81 M⁻¹ cm⁻¹; Quantum yield of prodrug photolysis Φp ([1]; λex 530 nm, Air): 3.42 ± 1.09%; Cross section Φpε(λex) ([1]; λex 530 nm, N2): 16017.11 ± 2044.88 M⁻¹ cm⁻¹; Cross section Φrε(λex) ([1]; λex 530 nm, N2): 6016.62 ± 1895.28 M⁻¹ cm⁻¹; Quantum yield of drug release Φr ([1]; λex 530 nm, N2): 6.73 ± 2.12%; Quantum yield of prodrug photolysis Φp ([1]; λex 530 nm, N2): 23.89 ± 3.05%; Cross section Φpε(λex) ([1]; λex 690 nm, 0.1 eq Os, Air): 1.87 ± 1.11 M⁻¹ cm⁻¹; Cross section Φrε(λex) ([1]; λex 690 nm, 0.1 eq Os, Air): 0.49 ± 0.11 M⁻¹ cm⁻¹; photocleavage in air-saturated solution ([2]; 530 nm green light, air-saturated): retarded; decomposition of prodrug and generation of free Cb in air-saturated solution ([2]; 690 nm, with Os(bptpy)2^2+, air-saturated): mostly retarded; Loading Capacity [6]: 0.27%; E (absorption coefficient at λabs, max) ([7]; at 543 nm): 89400 M⁻¹ cm⁻¹; λabs, max ([7]; dichloromethane solution with 2% acetone, 10 μM): 543 nm; λem, max ([7]; λex = 543 nm): 570^b nm

Source: patent US20250000979A1, “TRIPLET-TRIPLET ENERGY TRANSFER WITH LIGHT EXCITATION AT LONG WAVELENGTHS AND METHODS THEREOF” (priority 2023, published 2025)
